In data set [1] the target is T1, HDB-EtCl O-dechloroethylation (CYP1A1) in human liver microsomes (Homo sapiens, UniProt P04798).
T1 sequence (P04798 1-512): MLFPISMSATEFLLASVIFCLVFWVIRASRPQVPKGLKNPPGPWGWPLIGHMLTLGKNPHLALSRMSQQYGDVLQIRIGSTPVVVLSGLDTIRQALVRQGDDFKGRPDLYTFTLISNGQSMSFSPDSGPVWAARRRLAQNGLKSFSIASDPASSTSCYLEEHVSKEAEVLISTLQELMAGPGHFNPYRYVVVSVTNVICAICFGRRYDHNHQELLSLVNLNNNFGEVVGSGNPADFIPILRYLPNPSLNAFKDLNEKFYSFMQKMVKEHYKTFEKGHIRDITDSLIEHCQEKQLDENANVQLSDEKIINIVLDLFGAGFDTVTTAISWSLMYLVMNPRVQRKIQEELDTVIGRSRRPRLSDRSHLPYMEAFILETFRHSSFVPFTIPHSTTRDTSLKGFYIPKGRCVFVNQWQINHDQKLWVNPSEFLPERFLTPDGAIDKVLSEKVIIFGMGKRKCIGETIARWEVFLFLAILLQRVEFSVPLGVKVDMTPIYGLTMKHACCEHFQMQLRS
Kind of data set: Chemical inhibition assay of HDB-EtCl O-dechloroethylation in HLMs. The conditions noted are these: ABT 500 μmol/L, resveratrol 100 μmol/L, others 1-10 μmol/L.

For the next data set, the system named is LPS-induced ALI mice. Kind of data set: LPS-induced acute lung injury in mice. It is filed as in vivo, mouse.
Data set [2] has as its system DSS-induced ulcerative colitis mice. Kind of data set: DSS-induced ulcerative colitis in mice. Format: in vivo, mouse.
In data set [3] the test system is Caco2, BEAS-2B, H292, and HepG2 cells. Briefly: Cytotoxicity assays of probe, metabolite and inhibitor. The following applies: all tested mammalian cells. It is filed as cell-based, human.
Data set [4] concerns CYP1A1 in Caco2, BEAS-2B, H292, and HepG2 cells. Kind of data set: Functional imaging of CYP1A1 in living cells. The conditions noted are these: 100 μmol/L, 1 h pre-incubation. It is filed as cell-based, human.

Turning to `Nn1nnc2ccccc21` [ABT, 1-aminobenzotriazole], in data set [1], the “inhibition of HDB-EtCl O-dechloroethylation in HLMs” value is “completely blocked”.
With `C[C@@H]1C[C@H]2[C@@H]3CCC4=CC(=O)C=C[C@]4(C)[C@@]3(F)[C@@H](O)C[C@]2(C)[C@@]1(O)C(=O)CO` [Dex, dexamethasone], the lung injury scores entry in the data set with LPS-induced ALI mice (LAC-7 20 and 40 mg/kg, Dex 5 mg/kg) is reported as “significantly reduce”. Moreover, the “Occludin immunofluorescence intensity in lung” value in the data set on LPS-induced ALI mice (mouse, in vivo) was “enhanced”. Further, the “ZO-1 immunofluorescence intensity in lung” value in the data set on LPS-induced ALI mice (oral administration) is recorded as “significantly increased”. In addition, the “total cell count in BALF” value in the data set with LPS-induced ALI mice (vs LPS-induced ALI mice) is on record as “significantly decreased”.
On to `O=C(O)c1cc(/N=N/c2ccc(S(=O)(=O)Nc3ccccn3)cc2)ccc1O` [SASP, salazosulfapyridine], for which, in data set [2] (ELISA, oral administration), the “elevated IL-1β, TNF-α, IL-6, IFN-γ in intestinal tissues” value is on record as “effectively mitigated”. The “colon histopathological abnormities (H&E)” value in data set [2] (LAC-7 20 and 40 mg/kg, SASP 200 mg/kg) was “largely restored”. Moreover, in data set [2] (LAC-7 20 and 40 mg/kg, SASP 200 mg/kg, oral), the “shortening of colon length by DSS” value is recorded as “significantly reversed”. Further, the “expression of tight junction proteins Occludin and ZO-1 in intestine” value in data set [2] (immunofluorescence) was “significantly increased”.
In the case of `Oc1ccc(/C=C/c2cc(O)cc(O)c2)cc1` [resveratrol], the cytotoxicity entry in data set [3] is “weak cytotoxicity”. In data set [4], the “blocking of HDB-EtCl red-channel fluorescent signals in cells” value is listed as “completely blocked”. The “inhibition of HDB-EtCl O-dechloroethylation in HLMs” value in data set [1] was “completely blocked”.

These data come from article PMC11873638 (Acta Pharmaceutica Sinica. B, 2024).
